Values of other authors as cited in patent publication US20080226713A1, “Controlled Release Pharmaceutical Compositions of Tolperisone for Oral Administration” (priority 2004, published 2008).
Read-outs that look alike come from different tables or passages of the source.

Assays:
[1] = JP-A-53-40779
[2] = rat

In the case of `Cc1ccc(C(=O)C(C)CN2CCCCC2)cc1` (stereo not drawn) [R(−)tolperisone], the pharmacological effect ([1]; listed as R-tolperisone) is given as “muscle-relaxing effect”.

In the case of `Cc1ccc(C(=O)C(C)CN2CCCCC2)cc1` (stereo not drawn) [S(+)tolperisone], the pharmacological effect ([1]; listed as S-tolperisone) is listed as “vaso- or bronchodilatory effect” and the “extent of in-vivo inversion into the other enantiomer” value [2] is listed as “up to 20%”.
